Assays:
Assay type in all cases: cell-based, human
[1] = system: mesenchymal cells (ABME) with MNC; test: quantitative hematopoietic colony formation assay for ABME (HCFA-ABME): MNC with hematomodulator-contacted mesenchymal cells
Description: As described above, the medium for blood cell formation employed may be IMDM with 20% serum and supplemented with interleukins such as IL-lbeta, IL-3, and IL-6, stem cell factor, lineage specific growth factors such as erythropoietin and GM-CSF, G-CSF; and methyl cellulose to the extent of 0.8%, the culture is maintained for 12-14 days under the culture conditions whereby blood cell colonies grow well or form colonies and clearly the growth is visible/distinguishable for further analysis and use. An assay designed in a similar manner to assess quantitative nature of ABME function is referred hereafter as ‘quantitative hematopoietic colony formation assay for ABME (HCFA-ABME)’.
Several experiments were conducted to determine that mesenchymal cells exert direct influence on SPC cell-fate. In one set of experiments, mesenchymal cells were cultured separately and nearly 50,000 of them were exposed to a typical HCFA medium comprising 0.8% methyl cellulose in IMDM and 20-30% serum along with excess amounts of various purified and human specific cytokines and hematopoietic colony stimulating growth factors (from Stem cell Technologies, […], Canada). More specifically, the quantities of hematopoietic growth factors used routinely in HCFA were, 2 International Units per milliliter (2 I.U.ml^−1) of Erythropietin (EPO), 50 nanogram per milliliter (50 ng.ml^−1) of Stem Cell Factor (SCF) and 20 nanogram per milliliter (20 ng/ml^−1) each of Granulocyte-Macrophage-Colony Stimulating Factor (GM-CSF), Granulocyte-Colony Stimulating Factor (G-CSF), Interleukin-1 beta (IL-1β), Interleukin-3 (IL-3) and Interleukin-6 (IL-6) {all growth factors and cytokines are from Stem cell Technologies, Vancouver, Canada,}.
In another set of experiments, 50,000 of the same mesenchymal cells were first mixed with nearly 100,000 MNC, held at 37° C. for at least 30 minutes and were processed for colony formation assays. In several experiments, a consistent improvement in the number and cellularity of the hematopoietic colonies was seen when both these two cell types were mixed compared to a reference where only the cells of MNC were used. The increase was ranging from 1.5 to 10-fold. Thus, the enhancement in colony formation obtained with the use of only mesenchymal cells was highly variable and unpredictable among samples. The fact that hematopoietic colonies formed in increased numbers and cellularity only when MNC and mesenchymal cells were processed together is evidence of a new environment created by the mesenchymal cells in which the SPC present in the MNC were more productive. This increase results in activation of the pre-existing but quiescent SPC, formation of new SPC due to self-renewal, and a combination of both factors.
In order to create ABME, the mesenchymal cells were covered with the contacting medium comprising hematomodulators contained in IMDM with 20% human serum or fetal bovine serum for a desirable period (range 8-24 hours) and removed. The contacted cells were then washed 2 times using the contacting medium (IMDM +20% FCS) without hematomodulators and used as such or after harvesting the mesenchymal cells, which now represent the composition of in vitro ABME. Optionally, ABME cells can be configured on supports that will distribute them in two or more dimensions for better results. A requisite number of MNC/SPC and cells of the ABME are taken and kept together for a suitable duration (range 0.5 to 6 hours) after which they were processed for in vitro hematopoietic colony formation assays or hematopoiesis.
Thus, the inventors undertook 4 sets of experiments: (a) wherein mononuclear cells were exposed to mesenchymal cells without any treatment; (b) wherein MNC were exposed to mesenchymal cells contacted with a biological agent [TGFβ1] […]

CD34+ SPC = test: lineage commitment: HCFA with CD34+ SPC, count of mature blood cells after 14 days; settings: 10 ngml^-1, 18 hours; HCFA 14 days; FIG. 8a
Description: The mesenchyme cells (5×10^4 cells per well in a 24 well dish) were grown in IMDM plus 20% fetal bovine serum until they were nearly confluent. The medium was removed and was washed 2× with PBS. Two different ABME were prepared by using two biological hematomodulators (TGFβ1 10 ngml^−1, bFGF 10 ngml^−1, 18 hours) separately. The ABME formed was washed 2× with PBS and was covered with 0.2 ml of a suspension of CD34^+ SPC cells (10^5 ml−1) for 1 hour at 37° C. All the cells of the dish were then harvested after washing and were used in a HCFA. After 14 days, the mature blood cells formed were harvested and an aliquot of the suspension was examined under the microscope to identify and count the mature lymphoid and myeloid cells.
The mesenchyme cells (5×10^4 cells per well in a 24 well dish) were grown in IMDM plus 20% fetal bovine serum until they were nearly confluent. The medium was removed and was washed 2× with PBS. The cells in one well were treated with a DiBromo derivative of the Calcium ion chelator BAPTA (5 micromolar) for one hour whereas another well received only the medium without the BAPTA derivative. After 1 hour of incubation at 37° C., TGFβ1 was added to both the wells (10 ng ml−1) and the incubation was continued for a further period of 18 hours. The ABME formed in both wells were washed and were used for HCFA using CD34^+ SPC. After 14 days the mature blood cells were harvested and were quantitated for the cells of erythroid and myeloid lineage.

MNC = test: self renewal: GEMM colony formation of MNC mixed with doses of ABME cells
Description: The mesenchyme cells were grown in IMDM plus 20% fetal bovine serum until they were nearly confluent. The medium was removed and was washed 2× with PBS. ABME was prepared by using a biological hematomodulator namely, TGF beta 1(20 ng ml−1).The ABME formed was washed 2× with PBS and the cells were dissociated with a non-enzymatic solution (Sigma). A fixed number of MNC namely 2×10^5 were mixed with various doses of dissociated mesenchymal cells (2×10^4, 5×10^4 and 1×10^5) and incubated for 1 hour. At the end of the incubation, cells were processed for hematopoietic colony formation assays (HCFA). […] Secondly the lowest concentration of cells from ABME (2×10^4) was more efficient in the stimulation of GEMM formation than the highest concentration (1×10^5) of mesenchymal cells indicating a nearly 10 fold increase in the efficiency.

HIF1α = HIF1α immunostaining of mesenchymal cells; settings: immunostaining vs control cells; FIG. 11a
Description: Mesenchymal cells were processed for ABME formation as per details given in experiment #1 above using a biological modulator namely TGFbeta1. The cells were fixed after the indicated time periods and immuno-stained with an antibody to HIF1α which is a specific transcription factor related to hypoxia.

Substance: HumanTransforming Growth Factor beta1 [TGFβ1]
- efficiency of ABME created ([1]; 1-25 nano gram.ml^-1, mesenchymal cells contacted 8-24 hours): equally efficient ABME
- blood cell colonies formed (number, cellularity) ([1]; MNC exposed to mesenchymal cells contacted with the agent, compared with (A) untreated mesenchymal cells, FIG. 1): greater in number and of higher cellularity than (A)
- colony formation along lineages GEMM, BFU-E and GM ([1]; lineage specific colony formation assay, FIG. 3A, vs control without biological agent): uniformly stimulated
- potency in creating ABME from mesenchymal cells ([1]; used separately): nearly equipotent
- mature lymphoid and myeloid cells formed (CD34+ SPC): supported more myeloid cell formation
- GEMM colony formation (MNC; 20 ng ml-1, 2×10^5 MNC with 2×10^4, 5×10^4, 1×10^5 ABME cells vs control mesenchymal cells, FIG. 10a): clear dose dependent increase in GEMM colony formation
- increase in efficiency of GEMM stimulation (MNC; 2×10^4 ABME cells vs 1×10^5 mesenchymal cells): ~10 fold
- HIF1α expression (HIF1α): clear nuclear expression of HIF1α

From patent publication US20080241870A1, “Composition For Creating an Artificial Bone Marrow Like Environment and Use Thereof” (NATIONAL CENTRE FOR CELL SCINECES, priority 2005, published 2008)
